One experiment concerns the target human CB2 receptor (Homo sapiens (Human), UniProt P34972). Kind of experiment: CB2 receptor binding assay ([3H]CP-55,940 displacement, HEK-293 membranes). As for the experimental part:
The compounds were evaluated in CB1R and CB2R binding assays using membranes from HEK-293 cells transfected with cDNAs encoding the human recombinant CB1R (Bmax=[…] protein) and human recombinant CB2R (Bmax=[…] protein) (Perkin-Elmer). […] Compounds were tested following the procedure described by the cell membrane manufacturer. […] CB2R binding assays were carried out with two different buffers: incubation buffer (Tris-HCl, 50 mM; MgCl2, 5 mM; CaCl2 1 mM; BSA, 0.2% at pH 7.4) and washing buffer (Tris-HCl, 50 mM; NaCl 500 mM; BSA, 0.1% at pH 7.4). […] Assays were performed in duplicate and incubated for […] at 37° C. […] Data are analyzed and IC50 is calculated using GraphPad Prism 5 and the model “log(inhibitor) vs. response—Variable slope”. The binding affinity of the compounds is Determined by Using the Cheng and Prusoff Equation Ki=IC50/(1+[radioligand]/Kd).

A further experiment addresses human recombinant CB1R (Homo sapiens (Human), UniProt P21554). Nature of the experiment: CB1 receptor binding assay ([3H]CP-55,940 displacement, HEK-293 membranes). As to the method:
The compounds were evaluated in CB1R and CB2R binding assays using membranes from HEK-293 cells transfected with cDNAs encoding the human recombinant CB1R (Bmax=[…] protein) and human recombinant CB2R (Bmax=[…] protein) (Perkin-Elmer). […]. Compounds were tested following the procedure described by the cell membrane manufacturer. […] CB2R binding assays were carried out with two different buffers: incubation buffer (Tris-HCl, 50 mM; MgCl2, 5 mM; CaCl2 1 mM; BSA, 0.2% at pH 7.4) and washing buffer (Tris-HCl, 50 mM; NaCl 500 mM; BSA, 0.1% at pH 7.4). […] Assays were performed in duplicate and incubated for […] at 37° C. After the incubation, the assay mixture is filtered through 96 GF/C filter plates (Perkin Elmer #6005174) using Perkin Elmer Filtermate Harvester, and then washed four times with ice-cold washing buffer. The filters are dried for 1 hour at 50° C. and [^3H] trapped on filter counted for radioactivity in Perkin Elmer Microscint 20 cocktail (#6013329) using Perkin Elmer MicroBeta2 Reader. […] Data are analyzed and IC50 is calculated using GraphPad Prism 5 and the model “log(inhibitor) vs. response—Variable slope”. The binding affinity of the compounds is Determined by Using the Cheng and Prusoff Equation Ki=IC50/(1+[radioligand]/Kd).

The mark [1] stands for this setting: membranes of HEK-293 cells with human recombinant CB2R, [3H]CP-55,940, read-out: CB2 IC50.
The mark [2] stands for this setting: membranes of HEK-293 cells with human recombinant CB1R, [3H]CP-55,940, read-out: CB1 IC50.
[3] abbreviates: membranes of HEK-293 cells with human recombinant CB2R, [3H]CP-55,940, class symbols, read-out: CB2 IC50.
Where [4] appears, read: membranes of HEK-293 cells with human recombinant CB1R, [3H]CP-55,940, class symbols, read-out: CB1 IC50.

SMILES strings stand for the structures. pIC50: −log10 of the molar value. Read-outs that look alike come from different tables or passages of the source. A value given as a limit tells only on which side of the number the result lay.

Chain of human recombinant CB1R (P21554 whole entry): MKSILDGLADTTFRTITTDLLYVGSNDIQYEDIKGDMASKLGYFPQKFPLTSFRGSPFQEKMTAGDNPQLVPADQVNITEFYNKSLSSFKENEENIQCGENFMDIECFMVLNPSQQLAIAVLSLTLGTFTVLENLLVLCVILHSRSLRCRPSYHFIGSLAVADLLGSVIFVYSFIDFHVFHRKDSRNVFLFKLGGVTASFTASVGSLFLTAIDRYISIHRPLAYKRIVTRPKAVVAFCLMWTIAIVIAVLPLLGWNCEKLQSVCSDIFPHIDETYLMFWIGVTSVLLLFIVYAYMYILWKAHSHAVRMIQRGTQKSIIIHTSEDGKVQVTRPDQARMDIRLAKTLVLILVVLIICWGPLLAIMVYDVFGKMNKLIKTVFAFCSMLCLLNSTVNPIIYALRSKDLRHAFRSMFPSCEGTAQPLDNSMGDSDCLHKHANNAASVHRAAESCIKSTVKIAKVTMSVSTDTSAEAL
Chain of human CB2 receptor (P34972 whole entry): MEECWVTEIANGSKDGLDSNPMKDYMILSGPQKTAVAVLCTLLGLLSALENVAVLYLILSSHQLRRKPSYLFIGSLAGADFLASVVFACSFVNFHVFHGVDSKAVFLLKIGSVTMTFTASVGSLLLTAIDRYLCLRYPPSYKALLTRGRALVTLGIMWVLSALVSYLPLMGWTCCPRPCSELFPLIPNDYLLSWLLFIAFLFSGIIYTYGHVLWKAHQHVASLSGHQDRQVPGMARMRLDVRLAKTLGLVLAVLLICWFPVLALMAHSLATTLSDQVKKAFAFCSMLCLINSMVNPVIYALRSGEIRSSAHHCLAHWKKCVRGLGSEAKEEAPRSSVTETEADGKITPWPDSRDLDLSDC

Take `COc1ccc(-c2cnc3c(c2)cc(C(=O)NC2CCC4(CC2)CC4)c(=O)n3CCN2CCOCC2)cc1` [Compound 28, 6-(4-methoxyphenyl)-1-(2-morpholinoethyl)-2-oxo-N-(spiro[2.5]octan-6-yl)-1,2-dihydro-1,8-naphthyridine-3-carboxamide]: the results for the pIC50 at human CB2 receptor (setting [1]) and on human recombinant CB1R (setting [2]) were 9.15 and < 5.00, respectively.

Consider `O=C(NC1CC2(CCC2)C1)c1cc2cc(-c3ccc(F)cc3)cnc2n(CCN2CCOCC2)c1=O` [Compound 32, 6-(4-fluorophenyl)-1-(2-morpholinoethyl)-2-oxo-N-(spiro[3.3]heptan-2-yl)-1,2-dihydro-1,8-naphthyridine-3-carboxamide], for which the pIC50 is 9.10 on human CB2 receptor (setting [1]) and 7.41 at human recombinant CB1R (setting [2]).

On to `O=C(NC1CC2(CCC2)C1)c1cc2cc(-c3ccccn3)cnc2n(CCN2CCOCC2)c1=O` [Compound 34, 1-(2-morpholinoethyl)-2-oxo-6-(pyridin-2-yl)-N-(spiro[3.3]heptan-2-yl)-1,2-dihydro-1,8-naphthyridine-3-carboxamide], for which the pIC50 on human CB2 receptor (setting [1]) was 9.00; at human recombinant CB1R (setting [2]), 6.74.

For the compound `O=C(NC1CC2(CCC2)C1)c1cc2cc(-c3ccncn3)cnc2n(CCN2CCOCC2)c1=O` [Compound 35, 1-(2-morpholinoethyl)-2-oxo-6-(pyrimidin-4-yl)-N-(spiro[3.3]heptan-2-yl)-1,2-dihydro-1,8-naphthyridine-3-carboxamide], the pIC50 was 8.12 on human CB2 receptor (setting [1]) and 6.45 at human recombinant CB1R (setting [2]).

For the compound `O=C(NC1CC2(CCC2)C1)c1cc2cc(-c3ccc(F)cn3)cnc2n(CCN2CCOCC2)c1=O` [Compound 37, 6-(5-fluoropyridin-2-yl)-1-(2-morpholinoethyl)-2-oxo-N-(spiro[3.3]heptan-2-yl)-1,2-dihydro-1,8-naphthyridine-3-carboxamide], the pIC50 was 9.22 on human CB2 receptor (setting [1]) and 6.95 on human recombinant CB1R (setting [2]).

Take `O=C(NC1CC2(CCC2)C1)c1cc2cc(-c3ncccn3)cnc2n(CCN2CCOCC2)c1=O` [Compound 38, 1-(2-morpholinoethyl)-2-oxo-6-(pyrimidin-2-yl)-N-(spiro[3.3]heptan-2-yl)-1,2-dihydro-1,8-naphthyridine-3-carboxamide]: the pIC50 on human CB2 receptor (setting [3]) is > 7.00; at human recombinant CB1R it was 6.00 to 7.00.

With `COc1ccc(-c2ccc3c(c2)cc(C(=O)NC2CCC(C)(C)CC2)c(=O)n3CCN2CCOCC2)cc1` [Compound 39, N-(4,4-dimethylcyclohexyl)-6-(4-methoxyphenyl)-1-(2-morpholinoethyl)-2-oxo-1,2-dihydroquinoline-3-carboxamide], the pIC50 on human CB2 receptor (setting [1]) is 8.92; on human recombinant CB1R (setting [2]), < 5.00.

As for `CC(NC(=O)c1cc2cc(-c3ccc(C#N)cn3)cnc2n(CCN2CCOCC2)c1=O)c1ccc(C#N)cc1` (centres unmarked) [Compound 41, N-(1-(4-cyanophenyl)ethyl)-6-(5-cyanopyridin-2-yl)-1-(2-morpholinoethyl)-2-oxo-1,2-dihydro-1,8-naphthyridine-3-carboxamide], the negative-log IC50 (pIC50) is 6.00 to 7.00 at human CB2 receptor and < 6.00 on human recombinant CB1R (setting [4]).

On to `O=C(NC12CC(C1)C2)c1cc2cc(-c3ccc(OC(F)F)cc3)cnc2n(CCN2CCOCC2)c1=O` [Compound 54, N-(bicyclo[1.1.1]pentan-1-yl)-6-(4-(difluoromethoxy)phenyl)-1-(2-morpholinoethyl)-2-oxo-1,2-dihydro-1,8-naphthyridine-3-carboxamide], for which the figures for the pIC50 at human CB2 receptor (setting [3]) and on human recombinant CB1R (setting [4]) were > 7.00 and < 6.00, respectively.

As to `CC(NC(=O)c1cc2cc(-c3ccc(C#N)cn3)cnc2n(CC(C)(C)N2CCOCC2)c1=O)c1ccc(F)cc1` (centres unmarked) [Compound 56, 6-(5-cyanopyridin-2-yl)-N-(1-(4-fluorophenyl)ethyl)-1-(2-methyl-2-morpholinopropyl)-2-oxo-1,2-dihydro-1,8-naphthyridine-3-carboxamide], the pIC50 at human CB2 receptor (setting [3]) is > 7.00; at human recombinant CB1R (setting [4]), < 6.00.

`CC(NC(=O)c1cc2cc(Br)cnc2n(Cc2ncccn2)c1=O)c1ccc(F)cc1` (centres unmarked) [Compound 64, 6-bromo-N-(1-(4-fluorophenyl)ethyl)-2-oxo-1-(pyrimidin-2-ylmethyl)-1,2-dihydro-1,8-naphthyridine-3-carboxamide]: the pIC50 at human CB2 receptor (setting [3]) and on human recombinant CB1R (setting [4]) was < 6.00 throughout.

In the case of `CC(NC(=O)c1cc2cc(-c3ccc(F)cc3)cnc2n(Cc2ncccn2)c1=O)c1ccc(F)cc1` (centres unmarked) [Compound 65, 6-(4-fluorophenyl)-N-(1-(4-fluorophenyl)ethyl)-2-oxo-1-(pyrimidin-2-ylmethyl)-1,2-dihydro-1,8-naphthyridine-3-carboxamide], the pIC50 at human CB2 receptor is 6.00 to 7.00; on human recombinant CB1R (setting [4]), < 6.00.

As for `CC(C)Oc1ccc(-c2cnc3c(c2)cc(C(=O)NC2CC4(CCC4)C2)c(=O)n3Cc2ccc(F)cc2)cc1` [Compound 66, 6-(4-isopropoxyphenyl)-1-(4-fluorobenzyl)-2-oxo-N-(spiro[3.3]heptan-2-yl)-1,2-dihydro-1,8-naphthyridine-3-carboxamide], the pIC50 at human CB2 receptor (setting [3]) and on human recombinant CB1R (setting [4]) was < 6.00 each time.

As for `O=C(NC1CC2(CCC2)C1)c1cc2cc(-c3ccc(OC4CC4)cc3)cnc2n(Cc2ccc(F)cc2)c1=O` [Compound 67, 6-(4-cyclopropoxyphenyl)-1-(4-fluorobenzyl)-2-oxo-N-(spiro[3.3]heptan-2-yl)-1,2-dihydro-1,8-naphthyridine-3-carboxamide], the pIC50 on human CB2 receptor (setting [3]) and on human recombinant CB1R (setting [4]) was < 6.00 throughout.

For `CS(=O)(=O)c1ccc(-c2cnc3c(c2)cc(C(=O)NC2CC4(CCC4)C2)c(=O)n3Cc2ccc(F)cc2)cc1` [Compound 68, 1-(4-fluorobenzyl)-6-(4-(methylsulfonyl)phenyl)-2-oxo-N-(spiro[3.3]heptan-2-yl)-1,2-dihydro-1,8-naphthyridine-3-carboxamide], the pIC50 is 6.00 to 7.00 at human CB2 receptor and < 6.00 at human recombinant CB1R (setting [4]).

On to `O=C(Nc1ccccn1)c1cc2cc(Br)cnc2n(Cc2ccc(F)cc2)c1=O` [Compound 70, 6-bromo-1-(4-fluorobenzyl)-2-oxo-N-(pyridin-2-yl)-1,2-dihydro-1,8-naphthyridine-3-carboxamide], for which the values for the pIC50 at human CB2 receptor (setting [3]) and at human recombinant CB1R (setting [4]) were > 7.00 and < 6.00, respectively.

As to `Cc1ccc(NC(=O)c2cc3cc(Br)cnc3n(Cc3ccc(F)cc3)c2=O)cc1` [Compound 71, 6-bromo-1-(4-fluorobenzyl)-2-oxo-N-(p-tolyl)-1,2-dihydro-1,8-naphthyridine-3-carboxamide], the pIC50 on human CB2 receptor (setting [3]) and on human recombinant CB1R (setting [4]) was < 6.00 in each case.

On to `Cc1c(C(=O)NC2CCC(C)CC2)c(=O)n(CCN2CCOCC2)c2ncc(Br)cc12` (centres unmarked) [Compound 72, 6-bromo-4-methyl-N-(4-methylcyclohexyl)-1-(2-morpholinoethyl)-2-oxo-1,2-dihydro-1,8-naphthyridine-3-carboxamide], for which the pIC50 was > 7.00 on human CB2 receptor (setting [3]) and < 6.00 on human recombinant CB1R (setting [4]).

With `COc1ccc(-c2cnc3c(c2)c(C)c(C(=O)NC2CCC(C)CC2)c(=O)n3CCN2CCOCC2)cc1` (centres unmarked) [Compound 73, 6-(4-methoxyphenyl)-4-methyl-N-(4-methylcyclohexyl)-1-(2-morpholinoethyl)-2-oxo-1,2-dihydro-1,8-naphthyridine-3-carboxamide], the pIC50 is 6.00 to 7.00 on human CB2 receptor and < 6.00 on human recombinant CB1R (setting [4]).

In the case of `COc1ccc(-c2cnc3c(c2)c(C)c(C(=O)NC2CC4(CCC4)C2)c(=O)n3CCN2CCOCC2)cc1` [Compound 74, 6-(4-methoxyphenyl)-4-methyl-1-(2-morpholinoethyl)-2-oxo-N-(spiro[3.3]heptan-2-yl)-1,2-dihydro-1,8-naphthyridine-3-carboxamide], the pIC50 on human CB2 receptor (setting [3]) and on human recombinant CB1R (setting [4]) was < 6.00 throughout.

In the case of `COc1ccc(-c2cnc3c(c2)c(C)c(C(=O)NC(C)c2ccc(F)cc2)c(=O)n3CCN2CCOCC2)cc1` (centres unmarked) [Compound 75, N-(1-(4-fluorophenyl)ethyl)-6-(4-methoxyphenyl)-4-methyl-1-(2-morpholinoethyl)-2-oxo-1,2-dihydro-1,8-naphthyridine-3-carboxamide], the pIC50 at human CB2 receptor (setting [3]) and at human recombinant CB1R (setting [4]) was < 6.00 in each case.

As to `Cc1c(C(=O)NC2CC3(CCC3)C2)c(=O)n(Cc2ccc(F)cc2)c2ncc(Br)cc12` [Compound 76, 6-bromo-1-(4-fluorobenzyl)-4-methyl-2-oxo-N-(spiro[3.3]heptan-2-yl)-1,2-dihydro-1,8-naphthyridine-3-carboxamide], the results for the pIC50 on human CB2 receptor (setting [3]) and on human recombinant CB1R (setting [4]) were > 7.00 and < 6.00, respectively.

As a reminder, the pIC50 is −log10 of the IC50, conventionally taken in molar units.

Source of the values: patent US11564928B1, “Cannabinoid receptor type 2 (CB2) modulators and uses thereof” (Teon Therapeutics, Inc., priority 2020, dated 2023).
